30 molecules from patent US20250041307A1, “Uses of Bicyclic Compounds for the Treatment of Diseases” (Athira Pharma, Inc., priority 2021, published 2025) can be followed below.

For assay [1], the system named is HGF/MET system. Description: Phospho-MET ELISA. In kind it is cell-based. Details: key: − indicates that the compound failed to significantly augment MET phosphorylation; + indicates maximum potency at or above 100 nM; ++ indicates maximum potency at or above 10 nM; +++ indicates maximum potency at or above 1 nM; ++++ indicates maximum potency at or above 0.1 nM. Conditions: HEK293 cells; with 1 ng/mL recombinant HGF; 15 minutes; augmentation of MET phosphorylation (pMET ELISA). As for the experimental part:
Compounds were screened for potency towards the HGF/MET system using phospho-MET (pMET) ELISA kits (Cell Signaling). pMET levels were detected in samples having low (1 ng/mL) and high (10 ng/mL) concentrations of HGF.
HEK293 cells were prepared by passage into 6-well multi-plates and grown at 37° C. at 5% CO2 in DMEM+10% FBS until approximately 90% confluent. Cells were then starved for at least 8 hours in serum-free growth media.
Exemplary compounds were prepared in DMEM+0.1% FBS, diluted and added to treatment media with 1 ng/mL recombinant HGF protein (R&D Systems). Cells were incubated in triplicate at 37° C. and 5% CO2 for 15 minutes. Samples were then treated with 180 μL ice-cold RIPA (radioimmunoprecipitation assay) buffer and cells were lysed on ice for 15 minutes. Lysates were cleared by centrifugation at 16,000-g for 15 minutes and the supernatant was retained. Samples were normalized using a BCA assay of lysates to determine protein concentrations across the samples.
Between 50 and 100 μg total protein lysate was loaded into ELISA wells in pMET Sandwich ELISA kit (Cell Signaling Catalog #7227C), ensuring equal protein load in each well. The ELISA was processed according to manufacturer's instructions. After color developed, absorbance was read on an optical plate reader at 450 nm.
Potency measurements were determined using peak efficacy by scaling test compound dose treatments along a scale of 1-10 between 1 ng/mL and 10 ng/mL HGF doses according to the following formula: […]
where y is the normalized data-point, x is the raw data point, A is the mean HGF at 1 ng/mL, and B is the mean HGF at 10 ng/mL.
Background: ELISA stands for enzyme-linked immunosorbent assay.

For assay [2], the system named is MDCK cells. Put plainly: Cell scattering behavior assay. In kind it is cell-based. Details: key: − indicates that the compound failed to significantly promote cell scattering behavior; + indicates maximum potency at or above 100 nM; ++ indicates maximum potency at or above 10 nM; +++ indicates maximum potency at or above 1 nM; ++++ indicates maximum potency at or above 0.1 nM. Conditions: with 5 ng/mL HGF, 24 hours, normalized particle count compared to HGF treatment alone. As for the experimental part:
MDCK cells were grown under normal conditions and observed to spontaneously form tight colonies as they proliferate. MDCK cells respond to HGF treatment by moving away from each other (scattering), which is quantified to assess the amount of HGF/MET activation in the cell population. In this experiment, MDCK cells were plated in a 96-well format, treated with HGF and exemplary compounds, fluorescently stained, imaged in large fields, and scattering behavior was quantified. Quantification was determined by analyzing the number of continuous groups of cells compared to the total stained area imaged (normalized particle counts).
MDCK cells were plated at low density in black-walled imaging plates and allowed to attach overnight at 37° C. and 5% CO2 in DMEM+10% FBS. Cells were then starved to 2 hours in DMEM without FBS (“starve media”). Samples containing exemplary compounds were prepared in DMEM without FBS and included 5 ng/mL HGF protein (“treatment media”). A control curve was also prepared for each plate using HGF concentrations of 0, 5, 10, and 20 ng/mL. Starve media was replaced with treatment media and cells were incubated for 24 hours at 37° C. and 5% CO2.
After incubation, cells were fixed by replacing treatment media with cold ethanol and incubating for 20 minutes at 4° C. Cells were then rehydrated by washing with PBS and then with stain solution (fluorescent wheat germ agglutinin; WGA488 at 20 μg/mL in PBS). Cells were incubated with stain solution 30 minutes at room temperature after which stain solution was replaced with fresh PBS.
Fields of cells were imaged using an iCyte high content imager in the green wavelength. Images were converted to binary and analyzed for particle size and particle count. For the purpose of analysis, an individual cell touching no other cells or separated colonies of cells were identified as particles, and particle counts were normalized by the total signal area to account for differences in cell number. […] Compound potency was assessed by statistical increase in normalized particle count compared to HGF treatment alone.

For the molecule `CCC(C)CN1CC2N(C(=O)c3ccc(Cl)cc3)CCC(=O)N2C(C)C1=O` (centres unmarked) [Compound 10, 1-(4-chlorobenzoyl)-6-methyl-8-(2-methylbutyl)hexahydro-4H-pyrazino[1,2-a]pyrimidine-4,7(6H)-dione], the Potency result in assay [1] and in assay [2] was “−” throughout. Consider `CC1C(=O)N(CC2CCCC2)CC2N(C(=O)c3ccc(OC(F)F)cc3)CCC(=O)N12` (centres unmarked) [Compound 13], for which the Potency entry in assay [1] and in assay [2] was “−” in each case. Consider `CC1C(=O)N(CC2CCCC2)CC2N(C(=O)c3ccc(C(F)(F)F)cc3)CCC(=O)N12` (centres unmarked) [Compound 15], for which the Potency entry in assay [1] and in assay [2] was “−” throughout. Turning to `CC1C(=O)N(CC2CCC2)CC2N(C(=O)c3ccc(C(F)(F)F)cc3)CCC(=O)N12` (centres unmarked) [Compound 16], the Potency entry in assay [1] and in assay [2] was “−” in each case. In the case of `C=CCCN1CC2N(C(=O)c3ccc(OC(F)F)cc3)CCC(=O)N2C(C)C1=O` (centres unmarked) [Compound 18], the Potency entry in assay [1] and in assay [2] was “−” throughout. For `CCCCN1CC2N(C(=O)c3ccc(C(F)(F)F)cc3)CCC(=O)N2C(C)C1=O` (centres unmarked) [Compound 21], the Potency result in assay [1] and in assay [2] was “−” throughout. Consider `CC(C)CN1CC2N(C(=O)c3ccc(C(F)(F)F)cc3)CCC(=O)N2C(C)C1=O` (centres unmarked) [Compound 23], for which the Potency result in assay [1] and in assay [2] was “−” throughout. On to `CC(C)N1CC2N(C(=O)c3ccc(C(F)(F)F)cc3)CCC(=O)N2C(C)C1=O` (centres unmarked) [Compound 24], for which the Potency entry in assay [1] and in assay [2] was “−” throughout. As for `CC1C(=O)N(CCc2ccco2)CC2N(C(=O)c3ccc(OC(F)F)cc3)CCC(=O)N12` (centres unmarked) [Compound 25], the Potency result in assay [1] and in assay [2] was “−” in each case. `CC1C(=O)N(CCc2cccs2)CC2N(C(=O)c3ccc(OC(F)F)cc3)CCC(=O)N12` (centres unmarked) [Compound 26]: the Potency entry in assay [1] and in assay [2] was “−” in each case. Regarding `CC1C(=O)N(CC2CCCO2)CC2N(C(=O)c3ccc(OC(F)F)cc3)CCC(=O)N12` (centres unmarked) [Compound 27], the Potency result in assay [1] was “−”. On to `CC1C(=O)N(CCc2ccccc2)CC2N(C(=O)c3ccc(OC(F)F)cc3)CCC(=O)N12` (centres unmarked) [Compound 28], for which the Potency entry in assay [1] and in assay [2] was “−” each time. Regarding `CC1C(=O)N(CCc2ccncc2)CC2N(C(=O)c3ccc(OC(F)F)cc3)CCC(=O)N12` (centres unmarked) [Compound 29], in assay [1], the Potency result is on record as “−”. In the case of `CC1C(=O)N(CCC2CC2)CC2N(C(=O)c3ccc(OC(F)F)cc3)CCC(=O)N12` (centres unmarked) [Compound 31], the Potency result in assay [1] and in assay [2] was “−” in each case.

As to `COCCN1CC2N(C(=O)c3ccc(OC(F)F)cc3)CCC(=O)N2C(C)C1=O` (centres unmarked) [Compound 32], the Potency result in assay [1] and in assay [2] was “−” in each case. Consider `COCCCN1CC2N(C(=O)c3ccc(OC(F)F)cc3)CCC(=O)N2C(C)C1=O` (centres unmarked) [Compound 33], for which the Potency entry in assay [1] and in assay [2] was “−” each time. As for `CC1C(=O)N(CCO)CC2N(C(=O)c3ccc(OC(F)F)cc3)CCC(=O)N12` (centres unmarked) [Compound 34, 1-(4-(difluoromethoxy)benzoyl)-8-(2-hydroxyethyl)-6-methylhexahydro-4H-pyrazino[1,2-a]pyrimidine-4,7(6H)-dione], the Potency result in assay [1] and in assay [2] was “−” each time. For the molecule `CC1C(=O)N(CCN)CC2N(C(=O)c3ccc(OC(F)F)cc3)CCC(=O)N12` (centres unmarked) [Compound 35, 8-(2-aminoethyl)-1-(4-(difluoromethoxy)benzoyl)-6-methylhexahydro-4H-pyrazino[1,2-a]pyrimidine-4,7(6H)-dione], the Potency result in assay [1] and in assay [2] was “−” throughout.

Regarding `CC1C(=O)N(CCS(C)(=O)=O)CC2N(C(=O)c3ccc(OC(F)F)cc3)CCC(=O)N12` (centres unmarked) [Compound 36], the Potency entry in assay [1] and in assay [2] was “−” each time.

Consider `CC1C(=O)N(CCC2CCCC2)CC2N(Cc3ccc(OC(F)F)cc3)CCC(=O)N12` (centres unmarked) [Compound 38], for which the Potency result in assay [1] was “−”. On to `C=CCCN1CC2N(Cc3ccc(OC(F)F)cc3)CCC(=O)N2C(C)C1=O` (centres unmarked) [Compound 39], for which the Potency entry in assay [1] and in assay [2] was “−” each time. Consider `CC1C(=O)N(CCC2CCC2)CC2N(Cc3ccc(OC(F)F)cc3)CCC(=O)N12` (centres unmarked) [Compound 40], for which, in assay [1], the Potency result is given as “−”. In the case of `CCCCN1CC2N(Cc3ccc(OC(F)F)cc3)CCC(=O)N2C(C)C1=O` (centres unmarked) [Compound 41], the Potency entry in assay [1] and in assay [2] was “−” each time. With `CCC(C)CN1CC2N(Cc3ccc(C(F)(F)F)c(Cl)c3)CCC(=O)N2C(C)C1=O` (centres unmarked) [Compound 43], the Potency entry in assay [1] and in assay [2] was “−” in each case.

Take `CCC(C)CN1CC2N(Cc3c[nH]c4ccccc34)CCC(=O)N2C(C)C1=O` (centres unmarked) [Compound 44]: the Potency result in assay [1] and in assay [2] was “−” each time. As for `CC1C(=O)N(CCC2CCC2)CC2N(Cc3ccc(F)cc3)CCC(=O)N12` (centres unmarked) [Compound 45, 8-(2-cyclobutylethyl)-1-(4-fluorobenzyl)-6-methylhexahydro-4H-pyrazino[1,2-a]pyrimidine-4,7(6H)-dione], the Potency result in assay [1] is reported as “−”. As for `CC1C(=O)N(CCC2CCCC2)CC2N(Cc3ccc(F)cc3)CCC(=O)N12` (centres unmarked) [Compound 46, 8-(2-cyclopentylethyl)-1-(4-fluorobenzyl)-6-methylhexahydro-4H-pyrazino[1,2-a]pyrimidine-4,7(6H)-dione], the Potency entry in assay [1] and in assay [2] was “−” each time.

For `CCC(C)CN1CC2N(Cc3ccc(OC(F)F)cc3)CCC(=O)N2C(CF)C1=O` (centres unmarked) [Compound 47, 1-(4-(difluoromethoxy)benzyl)-6-(fluoromethyl)-8-(2-methylbutyl)hexahydro-4H-pyrazino[1,2-a]pyrimidine-4,7(6H)-dione], the Potency result in assay [1] is “−”. The same measure, in the same setting: with `CCC(C)CN1CC2N(Cc3ccc(C(F)(F)F)cc3)CCC(=O)N2C(CF)C1=O` (centres unmarked) [Compound 48, 6-(fluoromethyl)-8-(2-methylbutyl)-1-(4-(trifluoromethyl)benzyl)hexahydro-4H-pyrazino[1,2-a]pyrimidine-4,7(6H)-dione] the entry was “−”. Take `CCC(C)CN1CC2N(Cc3ccc(OC(F)F)cc3)CCC(=O)N2C(CC(N)=O)C1=O` (centres unmarked) [Compound 50, 2-(1-(4-(difluoromethoxy)benzyl)-8-(2-methylbutyl)-4,7-dioxooctahydro-2H-pyrazino[1,2-a]pyrimidin-6-yl)acetamide]: the Potency entry in assay [1] and in assay [2] was “−” each time.
